The nature of series [1]: Chemical stability in simulated intestinal fluid (SIF) without pancreatin. Type of series: physicochemical. Conditions: Table 2A, 50 μM prodrug. On the procedure: Chemical stability of creatine prodrugs in phosphate buffered saline (PBS), simulated intestinal fluid (SIF) without pancreatin, simulated gastric fluid (SGF) without pepsin were determined by LC-UV, LC-CAD, LC-UV-CAD or LC-MS/MS as appropriate. Creatine prodrugs of the present disclosure (50 μM) were incubated at 37° C. according to described protocols and prodrug levels were compared between t=0, t=15, t=60, and t=120 mins by peak area ratio to determine the percentage remained at t=120 mins (2 h).
Protocol for PBS, SIF and SGF stability for screening:
Prodrugs (50 μM) were incubated in PBS, FaSSIF (Biorelevant) or FaSSGF (Biorelevant) at 37° C.

Series [2] concerns the target T1, creatine transporter (Rattus norvegicus, UniProt P28570).
T1 construct: from tissue; host or cells: WT rat, in vivo (brain / blood-brain barrier)
T1 sequence (P28570 1-635): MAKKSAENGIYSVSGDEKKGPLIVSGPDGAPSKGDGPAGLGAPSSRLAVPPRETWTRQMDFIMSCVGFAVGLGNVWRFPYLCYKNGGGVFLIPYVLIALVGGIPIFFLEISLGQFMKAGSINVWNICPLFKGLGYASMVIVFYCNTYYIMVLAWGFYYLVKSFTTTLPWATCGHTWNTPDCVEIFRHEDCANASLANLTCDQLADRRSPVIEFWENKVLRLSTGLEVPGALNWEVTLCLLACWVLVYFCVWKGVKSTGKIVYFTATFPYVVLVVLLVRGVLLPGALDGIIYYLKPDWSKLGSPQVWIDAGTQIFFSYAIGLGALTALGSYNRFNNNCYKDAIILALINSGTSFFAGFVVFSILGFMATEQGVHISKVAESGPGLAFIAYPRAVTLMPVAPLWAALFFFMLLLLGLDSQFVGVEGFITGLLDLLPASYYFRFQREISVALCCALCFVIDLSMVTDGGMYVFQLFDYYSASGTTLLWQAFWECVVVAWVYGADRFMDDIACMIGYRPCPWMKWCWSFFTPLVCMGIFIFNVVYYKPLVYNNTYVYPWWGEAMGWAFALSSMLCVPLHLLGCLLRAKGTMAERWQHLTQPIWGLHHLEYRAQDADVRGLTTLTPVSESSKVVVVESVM
Put plainly: Co-administration with creatine transporter blocker beta-guanidinopropionic acid (GPA), d3-Cr in WT rat brain. Type of series: in vivo.

For `Cl.[2H]C([2H])([2H])N(CC(=O)OCC)C(=N)NC(=O)CCCCCCCCCC` [Compound 8], the “Chemical Stability SIF, no enzyme % T0 at 2 hours at 37 °C.” value in series [1] is given as 17%. The “levels of d3-Cr in WT rat brains with co-administration of GPA compared to dosing alone” value in series [2] was “did not change”.

(Values after patent US11332438B2, “Creatine prodrugs, compositions and methods of use thereof” (Ultragenyx Pharmaceutical Inc., priority 2017, dated 2022).)
